Results reported in patent US20190209650A1, “METHOD TO IMPROVE THE EFFECTIVENESS OF ANTI-CANCER THERAPIES BY EXPOSING CANCER CELLS TO AN INFLAMMATORY STIMULUS PRIOR TO TREATMENT” (priority 2016, published 2019).

System: SW620 colorectal cancer cell line
Assay: Flow cytometry of EpCAM positive cells and cancer stem cell (CD44+CD133-) subpopulation after incubation with cytokines
Type: cell-based, human
Conditions: for % Gated, R4 (CD44FITC, CD133 PE) / % Total, R4 (CD44FITC, CD133 PE): population R4 & R14 & R2 & R1; for % Gated, R5 (CD44FITC, CD133 PE) / % Total, R5 (CD44FITC, CD133 PE): population R5 & R14 & R2 & R1; for % Gated, R6 (CD44FITC, CD133 PE) / % Total, R6 (CD44FITC, CD133 PE): population R6 & R14 & R2 & R1; for % Gated, R7 Cancer Stem Cell (CSC) (CD44+CD133-) / % Total, R7 Cancer Stem Cell (CSC) (CD44+CD133-): population R7 & R14 & R2 & R1; for % Gated, R8 (CD44FITC, EpCAMefluor710) / % Total, R8 (CD44FITC, EpCAMefluor710): population R8 & R14 & R2 & R1; for % Gated, R9 EpCAM positive Cells (CD44FITC, EpCAMefluor710) / % Total, R9 EpCAM positive Cells (CD44FITC, EpCAMefluor710): population R9 & R14 & R2 & R1; for % Gated, R10 EpCAM positive Cells (CD44FITC, EpCAMefluor710) / % Total, R10 EpCAM positive Cells (CD44FITC, EpCAMefluor710): population R10 & R14 & R2 & R1; for % Gated, R11 (CD44FITC, EpCAMefluor710) / % Total, R11 (CD44FITC, EpCAMefluor710): population R11 & R14 & R2 & R1
Description: This number returned to near baseline 21% at 48 hours. […] This change was transient, occurring within 24 hours and rapidly returning to baseline.
The data from the scatter plots of FIGS. 1A-1H, 2A-2H, and 3A-3H are reproduced below in Tables 1-3.
Based on the above data of potentiating the effectiveness of chemotherapy by exposing cancer cells to specific cytokines such as HGF and or Il-6 within a time limited fashion, the mechanism behind this ability to sensitize cancer cells may not simply be triggering cellular proliferation. Specific cytokine exposures can transiently cause a cancer cell population to differentiate away from a more stem cell enriched, mesenchymal phenotype towards a more differentiated, epithelial cell population more sensitive to the effects of anti-cancer therapies (see Tables 1-3).
In particular, exposure to a control population of SW620 colorectal cancer cell line to HGF at a concentration of 10 ng per ml for 24 hours caused the control putative stem cell population (CD44+/CD133−) to drop from 33% at baseline (see Table 1, R7 region, CD 44 positive/CD133 negative) to 1% (see Table 2, R7, region CD 44 positive/CD133 negative). This drop was transient, as exposure to the same cell line for 48 hours of HGF at 10 ng per ml transitioned the phenotypic distribution back towards a stem cell enriched phenotype with 23% putative stem cells (see Table 3, R7 region, CD 44 positive/CD133 negative).

IL8: cytokine treatment IL8 in Tables 1-3
% Gated, R4 (CD44FITC, CD133 PE) (0 hour incubation): 48.9% | % Total, R4 (CD44FITC, CD133 PE) (0 hour incubation): 40.9% | % Gated, R5 (CD44FITC, CD133 PE) (0 hour incubation): 3.58% | % Total, R5 (CD44FITC, CD133 PE) (0 hour incubation): 2.99% | % Gated, R6 (CD44FITC, CD133 PE) (0 hour incubation): 14.3% | % Total, R6 (CD44FITC, CD133 PE) (0 hour incubation): 12% | % Gated, R7 Cancer Stem Cell (CSC) (CD44+CD133-) (0 hour incubation): 33.5% | % Total, R7 Cancer Stem Cell (CSC) (CD44+CD133-) (0 hour incubation): 28% | % Gated, R8 (CD44FITC, EpCAMefluor710) (0 hour incubation): 3.84% | % Total, R8 (CD44FITC, EpCAMefluor710) (0 hour incubation): 3.21% | % Gated, R9 EpCAM positive Cells (CD44FITC, EpCAMefluor710) (0 hour incubation): 55% | % Total, R9 EpCAM positive Cells (CD44FITC, EpCAMefluor710) (0 hour incubation): 46% | % Gated, R10 EpCAM positive Cells (CD44FITC, EpCAMefluor710) (0 hour incubation): 38.9% | % Total, R10 EpCAM positive Cells (CD44FITC, EpCAMefluor710) (0 hour incubation): 32.6% | % Gated, R11 (CD44FITC, EpCAMefluor710) (0 hour incubation): 1.92% | % Total, R11 (CD44FITC, EpCAMefluor710) (0 hour incubation): 1.6% | % Gated, R4 (CD44FITC, CD133 PE) (24 h incubation): 36.8% | % Total, R4 (CD44FITC, CD133 PE) (24 h incubation): 30% | % Gated, R5 (CD44FITC, CD133 PE) (24 h incubation): 7.29% | % Total, R5 (CD44FITC, CD133 PE) (24 h incubation): 5.93% | % Gated, R6 (CD44FITC, CD133 PE) (24 h incubation): 30.9% | % Total, R6 (CD44FITC, CD133 PE) (24 h incubation): 25.2% | % Gated, R7 Cancer Stem Cell (CSC) (CD44+CD133-) (24 h incubation): 24.5% | % Total, R7 Cancer Stem Cell (CSC) (CD44+CD133-) (24 h incubation): 19.9% | % Gated, R8 (CD44FITC, EpCAMefluor710) (24 h incubation): 1.98% | % Total, R8 (CD44FITC, EpCAMefluor710) (24 h incubation): 1.61% | % Gated, R9 EpCAM positive Cells (CD44FITC, EpCAMefluor710) (24 h incubation): 48.4% | % Total, R9 EpCAM positive Cells (CD44FITC, EpCAMefluor710) (24 h incubation): 39.4% | % Gated, R10 EpCAM positive Cells (CD44FITC, EpCAMefluor710) (24 h incubation): 50.1% | % Total, R10 EpCAM positive Cells (CD44FITC, EpCAMefluor710) (24 h incubation): 40.6% | % Gated, R11 (CD44FITC, EpCAMefluor710) (24 h incubation): 0.34% | % Total, R11 (CD44FITC, EpCAMefluor710) (24 h incubation): 0.27% | % Gated, R4 (CD44FITC, CD133 PE) (48 h incubation): 38.5% | % Total, R4 (CD44FITC, CD133 PE) (48 h incubation): 35.8% | % Gated, R5 (CD44FITC, CD133 PE) (48 h incubation): 6.8% | % Total, R5 (CD44FITC, CD133 PE) (48 h incubation): 6.32% | % Gated, R6 (CD44FITC, CD133 PE) (48 h incubation): 28.5% | % Total, R6 (CD44FITC, CD133 PE) (48 h incubation): 26.5% | % Gated, R7 Cancer Stem Cell (CSC) (CD44+CD133-) (48 h incubation): 26.8% | % Total, R7 Cancer Stem Cell (CSC) (CD44+CD133-) (48 h incubation): 24.9% | % Gated, R8 (CD44FITC, EpCAMefluor710) (48 h incubation): 23.1% | % Total, R8 (CD44FITC, EpCAMefluor710) (48 h incubation): 21.5% | % Gated, R9 EpCAM positive Cells (CD44FITC, EpCAMefluor710) (48 h incubation): 31% | % Total, R9 EpCAM positive Cells (CD44FITC, EpCAMefluor710) (48 h incubation): 28.8% | % Gated, R10 EpCAM positive Cells (CD44FITC, EpCAMefluor710) (48 h incubation): 25.4% | % Total, R10 EpCAM positive Cells (CD44FITC, EpCAMefluor710) (48 h incubation): 23.6% | % Gated, R11 (CD44FITC, EpCAMefluor710) (48 h incubation): 21.4% | % Total, R11 (CD44FITC, EpCAMefluor710) (48 h incubation): 19.9%

PDGF Beta: Platelet derived growth factor BB
% Gated, R4 (CD44FITC, CD133 PE) (0 hour incubation): 49.7% | % Total, R4 (CD44FITC, CD133 PE) (0 hour incubation): 46.5% | % Gated, R5 (CD44FITC, CD133 PE) (0 hour incubation): 2.45% | % Total, R5 (CD44FITC, CD133 PE) (0 hour incubation): 2.29% | % Gated, R6 (CD44FITC, CD133 PE) (0 hour incubation): 10.7% | % Total, R6 (CD44FITC, CD133 PE) (0 hour incubation): 9.97% | % Gated, R7 Cancer Stem Cell (CSC) (CD44+CD133-) (0 hour incubation): 37.3% | % Total, R7 Cancer Stem Cell (CSC) (CD44+CD133-) (0 hour incubation): 34.9% | % Gated, R8 (CD44FITC, EpCAMefluor710) (0 hour incubation): 4.94% | % Total, R8 (CD44FITC, EpCAMefluor710) (0 hour incubation): 4.62% | % Gated, R9 EpCAM positive Cells (CD44FITC, EpCAMefluor710) (0 hour incubation): 53.5% | % Total, R9 EpCAM positive Cells (CD44FITC, EpCAMefluor710) (0 hour incubation): 50% | % Gated, R10 EpCAM positive Cells (CD44FITC, EpCAMefluor710) (0 hour incubation): 38.8% | % Total, R10 EpCAM positive Cells (CD44FITC, EpCAMefluor710) (0 hour incubation): 36.3% | % Gated, R11 (CD44FITC, EpCAMefluor710) (0 hour incubation): 2.33% | % Total, R11 (CD44FITC, EpCAMefluor710) (0 hour incubation): 2.18% | % Gated, R4 (CD44FITC, CD133 PE) (24 h incubation): 36.2% | % Total, R4 (CD44FITC, CD133 PE) (24 h incubation): 32.4% | % Gated, R5 (CD44FITC, CD133 PE) (24 h incubation): 8.6% | % Total, R5 (CD44FITC, CD133 PE) (24 h incubation): 7.7% | % Gated, R6 (CD44FITC, CD133 PE) (24 h incubation): 32.2% | % Total, R6 (CD44FITC, CD133 PE) (24 h incubation): 28.8% | % Gated, R7 Cancer Stem Cell (CSC) (CD44+CD133-) (24 h incubation): 22.6% | % Total, R7 Cancer Stem Cell (CSC) (CD44+CD133-) (24 h incubation): 20.3% | % Gated, R8 (CD44FITC, EpCAMefluor710) (24 h incubation): 4.94% | % Total, R8 (CD44FITC, EpCAMefluor710) (24 h incubation): 4.42% | % Gated, R9 EpCAM positive Cells (CD44FITC, EpCAMefluor710) (24 h incubation): 45.3% | % Total, R9 EpCAM positive Cells (CD44FITC, EpCAMefluor710) (24 h incubation): 40.6% | % Gated, R10 EpCAM positive Cells (CD44FITC, EpCAMefluor710) (24 h incubation): 47.4% | % Total, R10 EpCAM positive Cells (CD44FITC, EpCAMefluor710) (24 h incubation): 42.5% | % Gated, R11 (CD44FITC, EpCAMefluor710) (24 h incubation): 3.22% | % Total, R11 (CD44FITC, EpCAMefluor710) (24 h incubation): 2.88% | % Gated, R4 (CD44FITC, CD133 PE) (48 h incubation): 40.1% | % Total, R4 (CD44FITC, CD133 PE) (48 h incubation): 27.6% | % Gated, R5 (CD44FITC, CD133 PE) (48 h incubation): 7.5% | % Total, R5 (CD44FITC, CD133 PE) (48 h incubation): 5.16% | % Gated, R6 (CD44FITC, CD133 PE) (48 h incubation): 27.4% | % Total, R6 (CD44FITC, CD133 PE) (48 h incubation): 18.9% | % Gated, R7 Cancer Stem Cell (CSC) (CD44+CD133-) (48 h incubation): 25.6% | % Total, R7 Cancer Stem Cell (CSC) (CD44+CD133-) (48 h incubation): 17.6% | % Gated, R8 (CD44FITC, EpCAMefluor710) (48 h incubation): 24.4% | % Total, R8 (CD44FITC, EpCAMefluor710) (48 h incubation): 16.8% | % Gated, R9 EpCAM positive Cells (CD44FITC, EpCAMefluor710) (48 h incubation): 31.8% | % Total, R9 EpCAM positive Cells (CD44FITC, EpCAMefluor710) (48 h incubation): 21.9% | % Gated, R10 EpCAM positive Cells (CD44FITC, EpCAMefluor710) (48 h incubation): 23.5% | % Total, R10 EpCAM positive Cells (CD44FITC, EpCAMefluor710) (48 h incubation): 16.2% | % Gated, R11 (CD44FITC, EpCAMefluor710) (48 h incubation): 21.1% | % Total, R11 (CD44FITC, EpCAMefluor710) (48 h incubation): 14.5%
